In general, melting point refers to the temperature, or range, at which the solid turns liquid.

Take `O=C(N[C@H](Cc1ccc(OC(F)(F)F)cc1)[C@@H](O)c1ccc(F)cc1)c1ccc(F)c2ccccc12` (racemic) [Example 134, 4-fluoro-N-[(1RS,2SR)-2-(4-fluorophenyl)-2-hydroxy-1-[4-(trifluoromethoxy)benzyl]ethyl]naphthalene-1-carboxamide]: the melting point was 230 to 231 °C. In turn, `O=C(N[C@H](Cc1cccc(OC(F)(F)C(F)F)c1)[C@@H](O)c1ccc(C(=O)N2CCCCC2)cc1)c1cccc2c1C=CCCC2` (racemic) [Example 313, N-[(1RS,2SR)-2-hydroxy-2-[4-(piperidinocarbonyl)phenyl]-1-[3-(1,1,2,2-tetrafluoroethoxy)benzyl]ethyl]-6,7-dihydro-5H-benzo[a]cycloheptene-1-carboxamide] had a melting point of 176 to 177 °C. In the case of `O=C(N[C@H](Cc1cccc(OC(F)(F)F)c1)[C@@H](O)c1ccc(F)cc1)c1ccc(F)c2ccccc12` (racemic) [Example 132, 4-fluoro-N-[(1RS,2SR)-2-(4-fluorophenyl)-2-hydroxy-1-[3-(trifluoromethoxy)benzyl]ethyl]naphthalene-1-carboxamide] it was 189 to 190 °C; in that of `O=C(N[C@H](Cc1cccc(C(F)(F)F)c1)[C@@H](O)c1ccc(F)cc1)c1cccc2ccccc12` (racemic) [Example 136, N-((1RS,2SR)-2-(4-fluorophenyl)-2-hydroxy-1-((3-(trifluoromethyl)phenyl)methyl)ethyl)-1-naphthalenecarboxamide], 158 to 159 °C.

Regarding `O=C(N[C@H](Cc1cccc(OC(F)(F)C(F)F)n1)[C@@H](O)c1ccc(F)cc1)c1cccc2c1C=CCCC2` (racemic) [Example 239, N-((1RS,2SR)-2-(4-fluorophenyl)-2-hydroxy-1-{[6-(1,1,2,2-tetrafluoroethoxy)pyridin-2-yl]methyl}ethyl)-6,7-dihydro-5H-benzo[a][7]annulene-1-carboxamide], the melting point was 134 to 135 °C. Next, `O=C(NC(Cc1ccc(C(F)(F)F)cc1)C(O)c1ccc(F)cc1)c1cccc2ccccc12` (racemic) [Example 1, N-[2-(4-fluorophenyl)-2-hydroxy-1-[[4-(trifluoromethyl)phenyl]methyl]ethyl]-1-naphthalenecarboxamide]: 159 to 181 °C. Next, `O=Cc1ccccc1-c1ccc([C@H](O)[C@@H](Cc2cccc(OC(F)(F)C(F)F)c2)NC(=O)c2cccc3c2C=CCCC3)cc1` (racemic) [Example 301, N-[(1RS,2SR)-2-(2′-formyl[1,1′-biphenyl]-4-yl)-2-hydroxy-1-[3-(1,1,2,2-tetrafluoroethoxy)benzyl]ethyl]-6,7-dihydro-5H-benzo[a]cycloheptene-1-carboxamide]: 195 to 196 °C; `CC(C)(C)c1ccc(C[C@@H](NC(=O)c2ccc(F)c3ccccc23)[C@@H](O)c2cccc(Cl)c2)cc1` (racemic) [Example 273, N-[(1RS,2SR)-1-(4-tert-butylbenzyl)-2-(3-chlorophenyl)-2-hydroxyethyl]-4-fluoro-1-naphthamide]: 144 to 145 °C; `COc1cccc(-c2ccc([C@H](O)[C@@H](Cc3cccc(OC(F)(F)C(F)F)c3)NC(=O)c3cccc4c3C=CCCC4)cc2)c1` (racemic) [Example 298, N-[(1RS,2SR)-2-hydroxy-2-(3′-methoxy[1,1′-biphenyl]-4-yl)-1-[3-(1,1,2,2-tetrafluoroethoxy)benzyl]ethyl]-6,7-dihydro-5H-benzo[a]cycloheptene-1-carboxamide]: 79 to 81 °C. With `Cc1ccc(C(=O)N[C@H](Cc2ccc(C(F)(F)F)cc2)[C@@H](O)c2ccc(F)cc2)c2ccccc12` (racemic) [Example 36, N-((1RS,2SR)-2-(4-fluorophenyl)-2-hydroxy-1-((4-(trifluoromethyl)phenyl)methyl)ethyl)-4-methyl-1-naphthalenecarboxamide], the melting point lay within 198 to 199 °C.

In the case of `CC(C)(C)OC(=O)Nc1ccc([C@H](O)[C@@H](Cc2cccc(OC(F)(F)C(F)F)c2)NC(=O)c2cccc3c2C=CCCC3)cc1` (racemic) [Example 321, N-[(1RS,2SR)-2-[4-[(tert-butoxycarbonyl)amino]phenyl]-2-hydroxy-1-[3-(1,1,2,2-tetrafluoroethoxy)benzyl]ethyl]-6,7-dihydro-5H-benzo[a]cycloheptene-1-carboxamide], the melting point is 153 to 156 °C. In the case of `O=C(CCc1ccccc1)N[C@H](Cc1ccc(C(F)(F)F)c(F)c1)[C@@H](O)c1ccc(F)cc1` (racemic) [Example 157, N-((1RS,2SR)-2-(4-fluorophenyl)-1-((3-fluoro-4-(trifluoromethyl)phenyl)methyl)-2-hydroxyethyl)-3-phenylpropanamide] it was 126 to 127 °C; in that of `CN(C)C(=O)c1ccc([C@H](O)[C@@H](Cc2cccc(OC(F)(F)C(F)F)c2)NC(=O)c2cccc3c2C=CCCC3)cc1` (racemic) [Example 312, N-[(1RS,2SR)-2-[4-[(dimethylamino)carbonyl]phenyl]-2-hydroxy-1-[3-(1,1,2,2-tetrafluoroethoxy)benzyl]ethyl]-6,7-dihydro-5H-benzo[a]cycloheptene-1-carboxamide], 165 to 166 °C. Next, `CCOC(=O)N[C@H](Cc1ccc(C(F)(F)F)cc1)[C@@H](O)c1ccc(F)cc1` (racemic) [Example 115, ethyl N-[(1RS,2SR)-2-(4-fluorophenyl)-2-hydroxy-1-[4-(trifluoromethyl)benzyl]ethyl]carbamate]: 143 to 144 °C; `O=C(N[C@H](Cc1ccc(C(F)(F)F)cc1)[C@@H](O)c1ccoc1)c1ccc(F)c2ccccc12` (racemic) [Example 195, 4-fluoro-N-((1RS,2SR)-2-(3-furanyl)-2-hydroxy-1-((4-(trifluoromethyl)phenyl)methyl)ethyl)-1-naphthalenecarboxamide]: 206 to 207 °C; `O=C(N[C@H](Cc1cccc(OC(F)(F)C(F)F)c1)[C@@H](O)c1cccc(F)c1)c1ccc(F)c2ccccc12` (racemic) [Example 263, 4-fluoro-N-{(1RS,2SR)-2-(3-fluorophenyl)-2-hydroxy-1-[3-(1,1,2,2-tetrafluoroethoxy)benzyl]ethyl}-1-naphthamide]: 175 to 176 °C. Next, `O=Cc1ccc([C@H](O)[C@@H](Cc2cccc(OC(F)(F)C(F)F)c2)NC(=O)c2cccc3c2C=CCCC3)cc1` (racemic) [Example 326, N-[(1RS,2SR)-2-(4-formylphenyl)-2-hydroxy-1-[3-(1,1,2,2-tetrafluoroethoxy)benzyl]ethyl]-6,7-dihydro-5H-benzo[a]cycloheptene-1-carboxamide]: 164 to 166 °C; `O=C(N[C@H](Cc1ccc(C(F)(F)F)cc1)[C@@H](O)c1ccc(F)cc1)c1c2ccccc2cc2ccccc12` (racemic) [Example 84, N-((1RS,2SR)-2-(4-fluorophenyl)-2-hydroxy-1-((4-(trifluoromethyl)phenyl)methyl)ethyl)-9-anthracenecarboxamide]: 251 to 252 °C; `O=C(CCc1ccccc1)N[C@H](Cc1ccc(C(F)(F)F)cc1)[C@@H](O)c1ccc(Oc2ccccc2)cc1` (racemic) [Example 211, N-((1RS,2SR)-2-hydroxy-2-(4-phenoxyphenyl)-1-((4-(trifluoromethyl)phenyl)methyl)ethyl)-3-phenylpropanamide]: 133 to 134 °C. Turning to `CC(C)(C)OC(=O)N[C@H](Cc1ccc(C(F)(F)F)cc1)[C@H](O)c1ccc(F)cc1` (racemic) [Example 24, 1,1-dimethylethyl(1RS,2RS)-2-(4-fluorophenyl)-2-hydroxy-1-((4-(trifluoromethyl)phenyl)methyl)ethylcarbamate], the melting point lay within 95 to 96 °C.

Consider `CC(C)(C)OC(=O)NCC(=O)O[C@H](c1ccc(F)cc1)[C@H](Cc1cccc(OC(F)(F)C(F)F)c1)NC(=O)c1cccc2c1C=CCCC2` (racemic) [Example 386, N-(tert-butoxycarbonyl)glycine (1RS,2SR)-2-[(6,7-dihydro-5H-benzo[a]cyclohepten-1-ylcarbonyl)amino]-1-(4-fluorophenyl)-3-[3-(1,1,2,2-tetrafluoroethoxy)phenyl]propyl ester], for which the melting point is 151 to 152 °C.

Regarding `CC(C)(C)c1cccc(C[C@@H](NC(=O)c2cccc3c(Cl)cccc23)[C@@H](O)c2cccc(Cl)c2)c1` (racemic) [Example 371, N-[(1RS,2SR)-1-[3-(tert-butyl)benzyl]-2-(3-chlorophenyl)-2-hydroxyethyl]-5-chloro-1-naphthamide], the melting point lay in the range of 91 to 93 °C. Next, `CCCCNC(=O)c1ccc([C@H](O)[C@@H](Cc2cccc(OC(F)(F)C(F)F)c2)NC(=O)c2cccc3c2C=CCCC3)cc1` (racemic) [Example 317, N-[(1RS,2SR)-2-[4-[(butylamino)carbonyl]phenyl]-2-hydroxy-1-[3-(1,1,2,2-tetrafluoroethoxy)benzyl]ethyl]-6,7-dihydro-5H-benzo[a]cycloheptene-1-carboxamide]: 207 to 208 °C. Regarding `O=C(N[C@H](Cc1ccc(C(F)(F)F)cc1)[C@@H](O)c1ccc(F)cc1)c1ccccc1` (racemic) [Example 68, N-[(1RS,2SR)-2-(4-fluorophenyl)-2-hydroxy-1-[4-(trifluoromethyl)benzyl]ethyl]benzamide], the melting point was in the range of 193 to 194 °C. Next, `O=C(N[C@H](Cc1ccc(C(F)(F)F)cc1)[C@@H](O)c1ccc(F)cc1)c1ccc(CO)c2ccccc12` (racemic) [Example 105, N-((1RS,2SR)-2-(4-fluorophenyl)-2-hydroxy-1-((4-(trifluoromethyl)phenyl)methyl)ethyl)-4-(hydroxymethyl)-1-naphthalenecarboxamide]: 202 to 203 °C. `CC(C)(C)c1ccc(C[C@@H](NC(=O)c2cccc3c(F)cccc23)[C@@H](O)c2ccc(F)cc2)cc1` (racemic) [Example 364, N-[(1RS,2SR)-1-(4-tert-butylbenzyl)-2-(4-fluorophenyl)-2-hydroxyethyl]-5-fluoro-1-naphthamide] returned a melting point of 148 to 149 °C. In turn, `O=C(N[C@H](Cc1ccc(C(F)(F)F)cc1)[C@@H](O)c1ccc(F)cc1)c1cccc2c1-c1ccccc1C2=O` (racemic) [Example 61, N-((1RS,2SR)-2-(4-fluorophenyl)-2-hydroxy-1-((4-(trifluoromethyl)phenyl)methyl)ethyl)-9-oxo-9H-fluorene-4-carboxamide] gave a melting point of 231 to 232 °C.

The values above are taken from US6982348B2, “Aminoethanol derivatives” (Takeda Pharmaceutical Company Limited, priority 2001, dated 2006).
